Measured values from patent US20180038871A1, “DIAGNOSTIC BIOMARKER TO IDENTIFY WOMEN AT RISK FOR PRETERM DELIVERY” (CEDARS-SINAI MEDICAL CENTER, priority 2009, published 2018).
Entries after “also recorded” stand apart in the source; their conditions may differ.

Tested on: Peripheral blood mononuclear cells (PBMC)
Experiment: LPS-induced cytokine expression profile in PBMC with or without cortisol pretreatment (Bioplex)
Assay type: cell-based, human
Set-up: key to Cortisol Effect on IFN-g secretion level / LPS Effect on IFN-g secretion level / Cortisol Effect on TNF-a secretion level / Cortisol Effect on GM-CSF secretion level / LPS Effect on GM-CSF secretion level / Cortisol Effect on IL-2 secretion level / LPS Effect on IL-2 secretion level / Cortisol Effect on IL-4 secretion level / Cortisol Effect on IL-10 secretion level: n/c = No Change
Method: Peripheral blood mononuclear cells (PBMC) from non-pregnant (at least 5-6 years post-partum) women with history of preterm or full term delivery, in addition to the microbial component lipopolysaccharide (LPS)-induced cytokine expression profile were examined. PBMC were separated from whole blood using Ficoll gradient. The cells were counted and equal numbers of cells were plated in 24 well plates. PBMC were treated with cortisol (50 or 300 ug/ml) or media for 1 hour prior to stimulation with LPS (0, 1, or 100 ug/ml) for 24 hours.
The PBMC were lysed and the supernatant was examined for inflammatory and anti-inflammatory cytokine expression by using Bioplex technology (Bio-rad).
In this study two patients were preterm and four were full term. There were 9 samples per patient (3×3 design) and all samples from each patient were analyzed twice for cytokine concentrations with the exception of one full term subject who only had one analysis of each sample. As a result there are a total of 99 observations for each cytokine measured. The assay simultaneously measured concentrations of 11 inflammatory markers: IL-1ra (IL1-receptor antagonist), IL-2, IL-4, IL-5, IL-8, IL-10, IL-12, IL-13, GM-CSF, IFN-g, and TNF-a.
All raw data was tested via the Kolmogorov-Smirnov test to determine if the data followed a normal distribution. Log-transformations were performed for all data found to have a non-normal distribution prior to further statistical analysis. For each cytokine, a mixed effects model was used to examine all data for significant effects with the outcome variable as the cytokine concentration; the fixed predictor variables as LPS concentration, cortisol concentration, and delivery status (pre- or full-term); and the random effect due to the replicate data points. To test the interaction of the three fixed predictor variables on cytokine concentration, both first and second level interactions ware added to each cytokine model. Post-hoc testing was performed using a Student's t-test.
Using the same mixed model regression, estimated group means and standard errors were calculated. Differences between preterm and full-term pregnancies were considered significant where p <0.10.

[1] = 0 or 1 ug/ml LPS 24 hours, 0 or 300 ug/ml cortisol pretreatment, mixed modeling
[2] = 0 or 300 ug/ml cortisol pretreatment 1 hour, 0 or 1 ug/ml LPS 24 hours, mixed modeling
[3] = 0 or 300 ug/ml cortisol pretreatment 1 hour, 0 or 1 ug/ml LPS 24 hours, mixed modeling, listed as cortisol
[4] = all 99 observations, 300 ug/ml vs 50 ug/ml cortisol

lipopolysaccharide [LPS]
LPS Effect on GM-CSF secretion level [1]: n/c, p = .19 | LPS Effect on IFN-g secretion level [1]: n/c, p = .17 | LPS Effect on IL-1ra secretion level [1]: increased secretion; also recorded: increase, p = .09 | LPS Effect on IL-2 secretion level [1]: n/c, p = .50 | LPS Effect on IL-4 secretion level [1]: increased secretion; also recorded: increase, p = .07 | LPS Effect on IL-10 secretion level [1]: increased secretion; also recorded: increase, p = .01 | LPS Effect on IL-13 secretion level [1]: increased secretion; also recorded: increase, p = .04 | LPS Effect on TNF-a secretion level [1]: increased secretion; also recorded: increase, p = .04 | Difference between the effects of 1 ug/ml and 100 ug/ml LPS, all cytokines measured (all 99 observations, 1 ug/ml vs 100 ug/ml LPS): no significant difference

C[C@]12CCC(=O)C=C1CC[C@@H]1[C@@H]2[C@@H](O)C[C@@]2(C)[C@H]1CC[C@]2(O)C(=O)CO [Cortisol, cortisol]
Cortisol Effect on GM-CSF secretion level [2]: n/c, p = .51 | Cortisol Effect on IFN-g secretion level [2]: n/c, p = .10 | Cortisol Effect on IL-1ra secretion level [2]: decrease, p = .03 | Cortisol Effect on IL-2 secretion level [2]: n/c, p = .80 | Cortisol Effect on IL-4 secretion level [2]: n/c, p = .26 | Cortisol Effect on IL-10 secretion level [2]: n/c, p = .12 | Cortisol Effect on IL-13 secretion level [2]: decrease, p = .01 | Cortisol Effect on TNF-a secretion level [2]: n/c, p = .41 | Cortisol Effect on IL-1ra secretion level [3]: suppress secretion | Cortisol Effect on IL-13 secretion level [3]: suppress secretion | Suppression of IL-1ra level, 300 ug/ml cortisol compared with 50 ug/ml [4]: more significant effect to suppress cytokine levels | Suppression of IL-10 level, 300 ug/ml cortisol compared with 50 ug/ml [4]: more significant effect to suppress cytokine levels | Suppression of IL-13 level, 300 ug/ml cortisol compared with 50 ug/ml [4]: more significant effect to suppress cytokine levels
